Earlier results, collected in patent US7250416B2, “Azacytosine analogs and derivatives” (SuperGen, Inc., priority 2005, dated 2007).
Where two headings read alike, the source gives them in different places.

How the values were obtained:
[1] = for steady-state plasma concentration: estimated
[2] = molecular target: T1, cytidine deaminase (Homo sapiens, UniProt P32320); conditions: by cytidine deaminase at equal concentrations
T1 construct: the enzyme purified from human liver; from tissue; host or cells: human liver
T1 sequence (P32320 whole entry): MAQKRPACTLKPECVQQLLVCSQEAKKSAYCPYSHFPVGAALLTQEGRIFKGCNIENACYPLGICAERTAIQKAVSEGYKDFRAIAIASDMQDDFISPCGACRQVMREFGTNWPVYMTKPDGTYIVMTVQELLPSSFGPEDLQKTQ

| Compound | steady-state plasma concentration ([1]; 6-hour infusion of 100 mg/m^2) [µg/mL] | range of concentrations during infusion ([1]; 600-mg/m^2 infusion) [µg/mL] | half-life after discontinuing the infusion ([1]; humans) [min] | total urinary excretion, % of the administered dose ([1]; humans) | volume of distribution ([1]; humans) | terminal half-life ([1]; humans, measured by bioassay) [min] | steady-state plasma concentration ([1]; infusion rate of 1 mg/kg/h) [µg/mL] | plasma concentration ([1]; infusion times of 40–60 hours, infusion rate 1 mg/kg/h) [ng/mL] | penetration into the cerebrospinal fluid, % of the plasma concentration ([1]; man, end of a 36-hour intravenous infusion) | plasma concentration ([1]; patients, 100 mg/m^2 as a 3-hour infusion) | time of hydrolysis to the amidino-urea derivative (1h) (alkaline medium) | stability in aqueous media (aqueous media, hydrolytic degradation) | maximum infusion time of reconstituted solution (reconstituted aqueous solution stored in the refrigerator for less than 7 hr) [h] | rate of deamination relative to that of decitabine [2] |
| --- | --- | --- | --- | --- | --- | --- | --- | --- | --- | --- | --- | --- | --- | --- |
| Nc1ncn([C@H]2C[C@H](O)[C@@H](CO)O2)c(=O)n1 [decitabine, 5-aza-2′-deoxycytidine] | 0.31 to 0.39 | 0.41 to 16 | 12 to 20 | less than 1% | about 4.6 L/kg | 10 to 35 | 0.2 to 0.5 | 430 to 760 | 14–21% | about 0.4 μg/ml | within a few minutes | unstable | ≤ 3 | – |
| Nc1ccn([C@H]2C[C@H](O)[C@@H](CO)O2)c(=O)n1 [deoxycytidine, 2′-deoxycytidine] | – | – | – | – | – | – | – | – | – | – | – | – | – | about 6 fold |
